Here are results for 25 molecules from patent US11795177B2, “Substituted quinoline analogs as aldehyde dehydrogenase 1A1 (ALDH1A1) inhibitors” (THE UNITED STATES OF AMERICA, AS REPRESENTED BY THE …, priority 2017, dated 2023).

The assay has as its system MIA PaCa-2 cells. As to the kind of experiment: MIA PaCa2 cell-based assay (1,536-well high-content imaging ALDEFLUOR assay). Particulars: Homo sapiens, 0.5 h, ALDEFLUOR BAAA substrate 500 nM, 30 minutes. More on the design: species or system human. As for the experimental part: Example 359. MIA PaCa2 Cell-Based Assay (In Vitro Assay)
1,536-Well High-Content Imaging ALDEFLUOR Assay
The ALDEFLUOR™ kit was purchased from […] Technologies (Vancouver, Canada; #01700). MIA PaCa-2 cells (5 μL; 1,000 cells/well) were dispensed into black, optical quality (cyclic olefin copolymer) clear bottom, medium binding TC treated 1,536-well plates (Aurora Microplates, Whitefish Mont.) using a Multidrop Combi dispenser (ThermoFisher) and incubated overnight (37° C., 5% CO2, 85% RH). Media (RPMI 1640 (Life Technologies, Carlsbad, Calif.), supplemented with 2 mM L-Glutamine (Life Technologies), 10% HyClone™ fetal bovine serum (FBS, GE Healthcare, Piscataway, N.J.) and 100 U/mL penicillin and 100 μg/mL streptomycin (Life Technologies)) was subsequently removed by centrifuging plates upside down using a plate adaptor to collect media. A solution of BAAA substrate ([…] Technologies) and Hoechst 33342 (ThermoFisher, final concentrations of 500 nM and 0.5 nM, respectively) in ALDEFLUOR™ buffer ([…] Technologies #01700) was dispensed onto cells using a Multidrop Combi followed by immediate transfer (23 nL) of compound or control solutions using a Wako Pin-tool (final percentage of DMSO in the cell plates was 0.5%). Unless otherwise noted, all compounds were assayed as 16-point dilutions spanning a final concentration range of 1.4 nM to 47.8 μM. The neutral and positive assay controls were DMSO and DEAB (4.6 μM), respectively. Cells were incubated for 30 minutes or the indicated amount of time at 37° C., 5% CO2, 85% RH to allow the conversion of BAAA into BAA. Supernatant was subsequently removed by centrifugation as described above, then ALDEFLUOR™ buffer (3 μl) was dispensed by Multidrop Combi before imaging on an IN Cell 2200 (GE Healthcare).
The above assay was modified for an online robotic screening system. After cell plating and overnight incubation, 4 μL of media were removed using a 64-tip metal aspirator head on a Wako aspirator station, leaving 1 μL remaining in the well, followed by a 4 μL dispense of BAAA and Hoechst 33342 in ALDEFLUOR™ buffer, for a final concentration of 500 nM and 0.5 nM, respectively Immediately following the dispense, 23 nL of compound or control solutions were transferred using a Wako Pin-tool. Cells were incubated for 30 minutes at 37° C., 5% CO2, 85% RH, followed by a 4 μL media removal using the Wako aspirator, and a subsequent 3 μL addition of ALDEFLUOR™ buffer. Plates were then immediately read on the IN Cell 2200 as described below.
Image Acquisition and Analysis
For images captured on the IN Cell 2200 widefield automated microscope, a 10×0.45 NA Plan Apo objective lens was used to capture the entire well of the 1,536-well plate using standard DAPI (390/18×, 432/48 m) and FITC (475/28×, 525/48 m) filter sets at 50 msec and 100 msec exposures, respectively. Images were subsequently analyzed using IN Cell Investigator v1.6.2 analysis software's canned Multi-Target Analysis algorithm (GE Healthcare). Hoechst stained nuclei were identified using top hat segmentation with a minimum area of 75 μm^2 and sensitivity of 93. BAA-retaining cells captured via FITC channel, were identified using multiscale top hat segmentation with a minimum area of 100 μm^2 and a sensitivity setting of 16. […] Data were plotted using GraphPad Prism software (GraphPad, San Diego, Calif.).

A word on the IC50: it is the concentration that gives 50% inhibition. Higher therefore signals a need for much substance. In turn, `CCC(=O)N1CCN(C(=O)c2cnc3ccc(F)cc3c2N2CCC(C)(C#N)CC2)CC1` [Example 91, 1-(6-fluoro-3-(4-propionylpiperazine-1-carbonyl)quinolin-4-yl)-4-methylpiperidine-4-carbonitrile] had an IC50 of 1000 to 10000 nM.

Molecule `CC(C)C(=O)N1CCN(C(=O)c2cnc3ccc(F)cc3c2N2CCC(C)(C#N)CC2)CC1` [Example 92, 1-(6-fluoro-3-(4-isobutyrylpiperazine-1-carbonyl)quinolin-4-yl)-4-methylpiperidine-4-carbonitrile] had an IC50 of 1000 to 10000 nM.

Molecule `O=C(c1cnc2cc(F)c(F)cc2c1N1CCC2(CC1)OCCO2)N1CCN(C(=O)C2CC2)CC1` [Example 122, (4-(cyclopropanecarbonyl)piperazin-1-yl)(6,7-difluoro-4-(1,4-dioxa-8-azaspiro[4.5]decan-8-yl)quinolin-3-yl)methanone] came in with an IC50 of 1000 to 10000 nM.

In the case of `CCS(=O)(=O)N1CCN(C(=O)c2cnc3ccc(F)cc3c2N2CCC(C)(C#N)CC2)CC1` [Example 156, 1-(3-(4-(ethylsulfonyl)piperazine-1-carbonyl)-6-fluoroquinolin-4-yl)-4-methylpiperidine-4-carbonitrile], the IC50 lay in the range of 1000 to 10000 nM.

With `CN(C)S(=O)(=O)N1CCN(C(=O)c2cnc3ccc(F)cc3c2N2CCC(C)(C#N)CC2)CC1` [Example 157, 4-(4-(4-cyano-4-methylpiperidin-1-yl)-6-fluoroquinoline-3-carbonyl)-N,N-dimethylpiperazine-1-sulfonamide], the IC50 was under 500 nM.

`CN(C)C(=O)N1CCN(C(=O)c2cnc3ccc(F)cc3c2N2CCC(C)(C#N)CC2)CC1` [Example 182, 4-(4-(4-cyano-4-methylpiperidin-1-yl)-6-fluoroquinoline-3-carbonyl)-N,N-dimethylpiperazine-1-carboxamide] gave an IC50 of 1000 to 10000 nM.

`CC1(C#N)CCN(c2c(C(=O)N3CCC(S(C)(=O)=O)CC3)cnc3ccc(F)cc23)CC1` [Example 188, 1-(6-fluoro-3-(4-(methylsulfonyl)piperidine-1-carbonyl)quinolin-4-yl)-4-methylpiperidine-4-carbonitrile] showed an IC50 of 1000 to 10000 nM.

For `CC1(C#N)CCN(c2c(C(=O)N3CCC(C(=O)C4CC4)CC3)cnc3ccc(F)cc23)CC1` [Example 194, 1-(3-(4-(cyclopropanecarbonyl)piperidine-1-carbonyl)-6-fluoroquinolin-4-yl)-4-methylpiperidine-4-carbonitrile], the IC50 was in the range of 1000 to 10000 nM.

The molecule `CCC1(C#N)CCN(c2c(C(=O)N3CCN(S(C)(=O)=O)CC3)cnc3ccc(F)cc23)CC1` [Example 197, 4-ethyl-1-(6-fluoro-3-(4-(methylsulfonyl)piperazine-1-carbonyl)quinolin-4-yl)piperidine-4-carbonitrile] gave an IC50 of under 500 nM.

The molecule `CS(=O)(=O)N1CCN(C(=O)c2cnc3ccc(F)cc3c2N2CCC3(CC2)CC(=O)c2ccccc23)CC1` [Example 199, 1′-(6-fluoro-3-(4-(methylsulfonyl)piperazine-1-carbonyl)quinolin-4-yl)spiro[indene-1,4′-piperidin]-3(2H)-one] came in with a half-maximal inhibitory concentration (IC50) of 1000 to 10000 nM.

`O=C(c1cnc2ccc(F)cc2c1N1CCC(Cc2ccccc2)CC1)N1CCN(C(=O)C2CC2)CC1` [Example 200, (4-(4-benzylpiperidin-1-yl)-6-fluoroquinolin-3-yl)(4-(cyclopropanecarbonyl)piperazin-1-yl)methanone] showed an IC50 of over 10000 nM.

In the case of `CS(=O)(=O)N1CCN(C(=O)c2cnc3ccc(F)cc3c2N2CCC3(CC2)Cc2ccccc2C3=O)CC1` [Example 201, 1′-(6-fluoro-3-(4-(methylsulfonyl)piperazine-1-carbonyl)quinolin-4-yl)spiro[indene-2,4′-piperidin]-1(3H)-one], the IC50 lay within 1000 to 10000 nM.

`CCC1(C#N)CCN(c2c(C(=O)N3CCN(C(=O)C4CC4)CC3)cnc3ccc(F)cc23)CC1` [Example 202, 1-(3-(4-(cyclopropanecarbonyl)piperazine-1-carbonyl)-6-fluoroquinolin-4-yl)-4-ethylpiperidine-4-carbonitrile] registered an IC50 of under 500 nM.

`Cn1ncc2c(N3CCC(C)(C#N)CC3)c(C(=O)N3CCN(S(C)(=O)=O)CC3)cnc21` [Example 206, 4-methyl-1-(1-methyl-5-(4-(methylsulfonyl)piperazine-1-carbonyl)-1H-pyrazolo[3,4-b]pyridin-4-yl)piperidine-4-carbonitrile] returned an IC50 of 1000 to 10000 nM.

`N#CC1(c2ccccc2)CCN(c2c(C(=O)N3CCN(C(=O)C4CC4)CC3)cnc3ccc(F)cc23)CC1` [Example 208, 1-(3-(4-(cyclopropanecarbonyl)piperazine-1-carbonyl)-6-fluoroquinolin-4-yl)-4-phenylpiperidine-4-carbonitrile] returned an IC50 of under 500 nM.

With `CS(=O)(=O)N1CCN(C(=O)c2cnc3ccc(F)cc3c2N2CCC(C#N)(c3ccccc3)CC2)CC1` [Example 209, 1-(6-fluoro-3-(4-(methylsulfonyl)piperazine-1-carbonyl)quinolin-4-yl)-4-phenylpiperidine-4-carbonitrile], the IC50 is under 500 nM.

Molecule `CS(=O)(=O)N1CCN(C(=O)c2cnc3ccc(F)cc3c2-c2ccc(C3(C#N)CC3)cc2)CC1` [Example 210, 1-(4-(6-fluoro-3-(4-(methylsulfonyl)piperazine-1-carbonyl)quinolin-4-yl)phenyl)cyclopropanecarbonitrile] returned an IC50 of under 500 nM.

Turning to `CC(C)(C#N)c1ccc(-c2c(C(=O)N3CCN(S(C)(=O)=O)CC3)cnc3ccc(F)cc23)cc1` [Example 211, 2-(4-(6-fluoro-3-(4-(methylsulfonyl)piperazine-1-carbonyl)quinolin-4-yl)phenyl)-2-methylpropanenitrile], the IC50 is under 500 nM.

`CC(=O)C1(c2ccccc2)CCN(c2c(C(=O)N3CCN(S(C)(=O)=O)CC3)cnc3ccc(F)cc23)CC1` [Example 216, 1-(1-(6-fluoro-3-(4-(methylsulfonyl)piperazine-1-carbonyl)quinolin-4-yl)-4-phenylpiperidin-4-yl)ethanone] displayed an IC50 of under 500 nM.

In the case of `CC1(C#N)CCN(c2c(C(=O)N3CCN(S(C)(=O)=O)CC3)cnc3sccc23)CC1` [Example 217, 4-methyl-1-(5-(4-(methylsulfonyl)piperazine-1-carbonyl)thieno[2,3-b]pyridin-4-yl)piperidine-4-carbonitrile], the IC50 lay within 1000 to 10000 nM.

With `CC1(C#N)CCN(c2c(C(=O)N3CCN(C(=O)C4CC4)CC3)cnc3sccc23)CC1` [Example 219, 1-(5-(4-(cyclopropanecarbonyl)piperazine-1-carbonyl)thieno[2,3-b]pyridin-4-yl)-4-methylpiperidine-4-carbonitrile], the IC50 is 1000 to 10000 nM.

As to `C=CS(=O)(=O)N1CCN(c2c(C(=O)N3CCN(S(C)(=O)=O)CC3)cnc3ccc(F)cc23)CC1` [Example 221, (6-fluoro-4-(4-(vinylsulfonyl)piperazin-1-yl)quinolin-3-yl)(4-(methylsulfonyl)piperazin-1-yl)methanone], the half-inhibitory concentration (IC50) is 1000 to 10000 nM.

The molecule `C[C@@H]1CN(C(=O)c2cnc3ccc(F)cc3c2N2CCC(C)(C#N)CC2)CCN1S(C)(=O)=O` [Example 223, (R)-1-(6-fluoro-3-(3-methyl-4-(methylsulfonyl)piperazine-1-carbonyl)quinolin-4-yl)-4-methylpiperidine-4-carbonitrile] showed an IC50 of 1000 to 10000 nM.

The molecule `C[C@H]1CN(C(=O)c2cnc3ccc(F)cc3c2N2CCC(C)(C#N)CC2)CCN1S(C)(=O)=O` [Example 226, (S)-1-(6-fluoro-3-(3-methyl-4-(methylsulfonyl)piperazine-1-carbonyl)quinolin-4-yl)-4-methylpiperidine-4-carbonitrile] returned an IC50 of 1000 to 10000 nM.

Molecule `CC1(C#N)CCN(c2c(C(=O)N3CCN(S(C)(=O)=O)C(C)(C)C3)cnc3ccc(F)cc23)CC1` [Example 229, 1-(3-(3,3-dimethyl-4-(methylsulfonyl)piperazine-1-carbonyl)-6-fluoroquinolin-4-yl)-4-methylpiperidine-4-carbonitrile] had an IC50 of over 10000 nM.
